Test results reported in PubChem BioAssay AID220 (DTP/NCI, 2004).
“And” between values parts separate entries of the source, which are not always exact repeats. Equal entries are not always repeated. Records with an inconclusive call do not appear.

Test system: CD8F1 mice, subcutaneous mammary adenocarcinoma, T/C%
Assay: NCI In Vivo Anticancer Drug Screen. Data for tumor model Mammary Adenocarcinoma CD8F1 (subcutaneous) in CD8F1
Details: higher = larger tumour
Outline: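 Ratio of treated to vehicle-control outcome, based on either survival or tumor size, in mice bearing transplantable tumors given the test compound.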

[1] = endpoint: median tumor weight (est.), dose: 12.5 mg/kg/injection, schedule: Q07DX005 (ip), vehicle: saline with Tween-80
[2] = endpoint: median tumor weight (est.), dose: 100.0 mg/kg/injection, schedule: Q07DX005 (ip), vehicle: saline with Tween-80
[3] = endpoint: median tumor weight change, dose: 125.0 mg/kg/injection, schedule: Q01DX001 (ip), vehicle: suspension in saline
[4] = endpoint: median tumor weight change, dose: 250.0 mg/kg/injection, schedule: Q01DX001 (ip), vehicle: suspension in saline
[5] = endpoint: median tumor weight (est.), dose: 25.0 mg/kg/injection, schedule: Q07DX005 (ip), vehicle: Klucel (hydroxypropylcellulose) (HPC)
[6] = endpoint: median tumor weight (est.), dose: 50.0 mg/kg/injection, schedule: Q07DX005 (ip), vehicle: Klucel (hydroxypropylcellulose) (HPC)
[7] = endpoint: median tumor weight (est.), dose: 100.0 mg/kg/injection, schedule: Q07DX005 (ip), vehicle: Klucel (hydroxypropylcellulose) (HPC)
[8] = endpoint: median tumor weight (est.), dose: 400.0 mg/kg/injection, schedule: Q07DX005 (ip), vehicle: Klucel (hydroxypropylcellulose) (HPC)
[9] = endpoint: median tumor weight change, dose: 50.0 mg/kg/injection, schedule: Q01DX001 (ip), vehicle: Klucel (hydroxypropylcellulose) (HPC)
[10] = endpoint: median tumor weight change, dose: 100.0 mg/kg/injection, schedule: Q01DX001 (ip), vehicle: Klucel (hydroxypropylcellulose) (HPC)
[11] = endpoint: median tumor weight change, dose: 125.0 mg/kg/injection, schedule: Q01DX001 (ip), vehicle: Klucel (hydroxypropylcellulose) (HPC)
[12] = endpoint: median tumor weight (est.), dose: 12.5 mg/kg/injection, schedule: Q07DX005 (ip), vehicle: Klucel (hydroxypropylcellulose) (HPC)
[13] = endpoint: median tumor weight (est.), dose: 200.0 mg/kg/injection, schedule: Q07DX005 (ip), vehicle: Klucel (hydroxypropylcellulose) (HPC)

With `CCCCCc1cc(/C=C2/N=C(c3ccc[nH]3)C=C2OC)[nH]c1C` the T/C (endpoint: median tumor weight (est.), dose: 0.5 mg/kg/injection, schedule: Q07DX005 (ip), vehicle: suspension in saline) was 169 % of control, the T/C (endpoint: median tumor weight (est.), dose: 1.0 mg/kg/injection, schedule: Q07DX005 (ip), vehicle: suspension in saline) was 85 % of control and the T/C (endpoint: median tumor weight (est.), dose: 4.0 mg/kg/injection, schedule: Q07DX005 (ip), vehicle: suspension in saline) was 82 % of control. For the same molecule, the T/C (endpoint: median tumor weight (est.), dose: 8.0 mg/kg/injection, schedule: Q07DX005 (ip), vehicle: suspension in saline) was 95 % of control.
With `COC(=O)C(F)C(Br)C(=O)OC` (stereo not drawn) the T/C (endpoint: median tumor weight (est.), dose: 6.25 mg/kg/injection, schedule: Q07DX005 (ip), vehicle: saline with Tween-80) was 61 % of control, the T/C [1] was 87 % of control and the T/C (endpoint: median tumor weight (est.), dose: 25.0 mg/kg/injection, schedule: Q07DX005 (ip), vehicle: saline with Tween-80) was 106 % of control. The T/C (endpoint: median tumor weight (est.), dose: 50.0 mg/kg/injection, schedule: Q07DX005 (ip), vehicle: saline with Tween-80) was 74 % of control and the T/C [2] was 77 % of control.
`O=C1CN(Cc2ccc3c(c2)OCO3)NO1` was tested, and the T/C (endpoint: median tumor weight change, dose: 62.5 mg/kg/injection, schedule: Q01DX001 (ip), vehicle: saline with Tween-80) was 80 % of control and 84 % of control, the T/C (endpoint: median tumor weight change, dose: 125.0 mg/kg/injection, schedule: Q01DX001 (ip), vehicle: saline with Tween-80) was 113 % of control and 115 % of control and the T/C (endpoint: median tumor weight change, dose: 250.0 mg/kg/injection, schedule: Q01DX001 (ip), vehicle: saline with Tween-80) was 80 % of control and 83 % of control. For the same molecule, the T/C (endpoint: median tumor weight change, dose: 1000.0 mg/kg/injection, schedule: Q01DX001 (ip), vehicle: saline with Tween-80) was 88 % of control.
For `COc1cc2c(c(OC)c1OC)-c1ccc(OC)c(=O)cc1[C@@H](NC(=O)CCl)CC2`, the T/C (endpoint: median tumor weight change, dose: 5.0 mg/kg/injection, schedule: Q01DX001 (ip), vehicle: saline with Tween-80) was 76 % of control.
In the case of `COC(=O)Nc1nc2ccc(C3(c4ccc(F)cc4)OCCO3)cc2[nH]1`, the T/C (endpoint: median tumor weight change, dose: 125.0 mg/kg/injection, schedule: Q01DX001 (ip), vehicle: saline) is reported as 99 % of control, the T/C [3] is reported as 152 % of control and the T/C [4] is reported as 67 % of control. The T/C (endpoint: median tumor weight change, dose: 500.0 mg/kg/injection, schedule: Q01DX001 (ip), vehicle: suspension in saline) was 153 % of control and the T/C (endpoint: median tumor weight change, dose: 1000.0 mg/kg/injection, schedule: Q01DX001 (ip), vehicle: suspension in saline) was 93 % of control.
In the case of `Nc1nncs1`, the T/C [5] is reported as 72 % of control and 85 % of control, the T/C [6] is reported as 44 % of control and 62 % of control and the T/C [7] is reported as 34 % of control. For the same molecule, the T/C [8] was 24 % of control and 49 % of control.
With `Oc1cc2c3c(c1)c1cc4c(cc1c[n+]3CC2)OCO4` the T/C (endpoint: median tumor weight (est.), dose: 6.25 mg/kg/injection, schedule: Q07DX005 (ip), vehicle: water) was 81 % of control, the T/C (endpoint: median tumor weight (est.), dose: 12.5 mg/kg/injection, schedule: Q07DX005 (ip), vehicle: water) was 83 % of control and the T/C (endpoint: median tumor weight (est.), dose: 25.0 mg/kg/injection, schedule: Q07DX005 (ip), vehicle: water) was 85 % of control. For the same molecule, the T/C (endpoint: median tumor weight (est.), dose: 50.0 mg/kg/injection, schedule: Q07DX005 (ip), vehicle: water) was 94 % of control and the T/C (endpoint: median tumor weight (est.), dose: 100.0 mg/kg/injection, schedule: Q07DX005 (ip), vehicle: water) was 78 % of control.
`OCCN1CCN(CC/C=C2/c3ccccc3Sc3ccc(C(F)(F)F)cc32)CC1` was tested, and the T/C (endpoint: median tumor weight (est.), dose: 3.12 mg/kg/injection, schedule: Q07DX005 (ip), vehicle: saline) was 70 % of control, the T/C (endpoint: median tumor weight (est.), dose: 6.25 mg/kg/injection, schedule: Q07DX005 (ip), vehicle: saline) was 107 % of control and the T/C (endpoint: median tumor weight (est.), dose: 12.5 mg/kg/injection, schedule: Q07DX005 (ip), vehicle: saline) was 120 % of control. For the same molecule, the T/C (endpoint: median tumor weight (est.), dose: 25.0 mg/kg/injection, schedule: Q07DX005 (ip), vehicle: saline) was 101 % of control and the T/C (endpoint: median tumor weight (est.), dose: 50.0 mg/kg/injection, schedule: Q07DX005 (ip), vehicle: saline) was 81 % of control.
In the case of `CN1CCc2c(c3ccccc3c3ccccc23)C1`, the T/C (endpoint: median tumor weight change, dose: 12.5 mg/kg/injection, schedule: Q01DX001 (ip), vehicle: Klucel (hydroxypropylcellulose) (HPC)) is reported as 57 % of control, the T/C (endpoint: median tumor weight change, dose: 25.0 mg/kg/injection, schedule: Q01DX001 (ip), vehicle: Klucel (hydroxypropylcellulose) (HPC)) is reported as 65 % of control and the T/C [9] is reported as 49 % of control. For the same molecule, the T/C (endpoint: median tumor weight change, dose: 62.5 mg/kg/injection, schedule: Q01DX001 (ip), vehicle: Klucel (hydroxypropylcellulose) (HPC)) was 74 % of control, the T/C [10] was 27 % of control and the T/C [11] was 56 % of control.
In the case of `O=C(O)CC(=O)O.[NH-]C1CCCCC1[NH-].[Pt+2]` (stereo not drawn), the T/C (endpoint: median tumor weight (est.), dose: 20.0 mg/kg/injection, schedule: Q07DX005 (ip), vehicle: dextrose) is reported as 14 % of control, the T/C (endpoint: median tumor weight (est.), dose: 40.0 mg/kg/injection, schedule: Q07DX005 (ip), vehicle: dextrose) is reported as 38 % of control and the T/C (endpoint: median tumor weight (est.), dose: 80.0 mg/kg/injection, schedule: Q07DX005 (ip), vehicle: dextrose) is reported as 67 % of control.
`Cc1c[nH]c(=O)[nH]c1=O` was tested, and the T/C (endpoint: median tumor weight (est.), dose: 64.0 mg/kg/injection, schedule: Q07DX005 (ip), vehicle: Klucel (hydroxypropylcellulose) (HPC)) was 214 % of control and 74 % of control and the T/C (endpoint: median tumor weight (est.), dose: 128.0 mg/kg/injection, schedule: Q07DX005 (ip), vehicle: Klucel (hydroxypropylcellulose) (HPC)) was 112 % of control and 118 % of control.
`CC(=O)OCc1cc(=O)n(C)c2c3c4c(cc12)c(C)cc(=O)n4CO3` was tested, and the T/C (endpoint: median tumor weight (est.), dose: 6.25 mg/kg/injection, schedule: Q07DX005 (ip), vehicle: Klucel (hydroxypropylcellulose) (HPC)) was 42 % of control, the T/C [12] was 66 % of control and 78 % of control and the T/C [7] was 19 % of control and 43 % of control. For the same molecule, the T/C [13] was 22 % of control and 26 % of control.
In the case of `CC(CN1CC(=O)NC(=O)C1)N1CC(=O)NC(=O)C1` (stereo not drawn), the T/C [12] is reported as 59 % of control, the T/C [5] is reported as 84 % of control and the T/C [6] is reported as 41 % of control. For the same molecule, the T/C [13] was 21 % of control and 29 % of control and the T/C [8] was 5 % of control and 11 % of control.
In the case of `COc1c(O)c2c(c3cc(C(=O)N4CCc5c4c(O)c(OC)c4[nH]c(C(=O)N6CC7CC78C6=CC(=O)c6[nH]cc(C)c68)cc54)[nH]c13)CCN2C(N)=O` (stereo not drawn), the T/C (endpoint: median tumor weight (est.), dose: 6.25 micrograms/kg/injection, schedule: Q07DX005 (ip), vehicle: DMSO) is reported as 97 % of control and the T/C (endpoint: median tumor weight (est.), dose: 12.5 micrograms/kg/injection, schedule: Q07DX005 (ip), vehicle: DMSO) is reported as 42 % of control.
`CCCCCC[C@H]([C@H](C)O)n1cnc2c(N)ncnc21` was tested, and the T/C [12] was 60 % of control, the T/C [5] was 305 % of control and the T/C [6] was 206 % of control and 84 % of control. The T/C [7] was 106 % of control, the T/C [9] was 68 % of control and the T/C [10] was 106 % of control. For the same molecule, the T/C (endpoint: median tumor weight change, dose: 200.0 mg/kg/injection, schedule: Q01DX001 (ip), vehicle: Klucel (hydroxypropylcellulose) (HPC)) was 79 % of control.
With `COc1cc2cc3c4cc(OC)c(OC)cc4cc[n+]3c(C)c2cc1OC` (tested in a mixture with another compound) the T/C (endpoint: median tumor weight (est.), dose: 100.0 mg/kg/injection, schedule: Q07DX005 (ip), vehicle: suspension in saline) was 97 % of control.
For `c1cc(OCC2CO2)ccc1OCC1CO1` (stereo not drawn), the T/C [11] was 92 % of control and the T/C (endpoint: median tumor weight change, dose: 250.0 mg/kg/injection, schedule: Q01DX001 (ip), vehicle: Klucel (hydroxypropylcellulose) (HPC)) was 113 % of control.
`CN(C)[C@@H]1C(=O)C(C(N)=O)=C(O)[C@@]2(O)C(=O)C3=C(O)c4c(O)ccc(Cl)c4[C@@](C)(O)[C@H]3C[C@@H]12` was tested, and the T/C (endpoint: median tumor weight change, dose: 31.25 mg/kg/injection, schedule: Q01DX001 (ip), vehicle: suspension in saline) was 86 % of control, the T/C (endpoint: median tumor weight change, dose: 62.5 mg/kg/injection, schedule: Q01DX001 (ip), vehicle: suspension in saline) was 104 % of control and the T/C [3] was 84 % of control. The T/C [4] was 83 % of control.
`CCO/C=C1\SC(=S)N(c2ccccc2C)C1=O` was tested, and the T/C [1] was 106 % of control, the T/C [2] was 115 % of control and the T/C (endpoint: median tumor weight (est.), dose: 200.0 mg/kg/injection, schedule: Q07DX005 (ip), vehicle: saline with Tween-80) was 95 % of control. The T/C (endpoint: median tumor weight (est.), dose: 400.0 mg/kg/injection, schedule: Q07DX005 (ip), vehicle: saline with Tween-80) was 67 % of control.
